{"source": "patent US10294202B2", "about": "“Pyrrolidinones as herbicides” (FMC Corporation, priority 2013, dated 2019)", "key": {"pigweed [1]": {"test_system": "pigweed", "assay": "Test C pre-/postemergence herbicide test", "assay_type": "in vivo, Amaranthus retroflexus", "how_it_was_run": "(§1)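 Greenhouse pots; formulation = non-phytotoxic solvent mix + surfactant. PRE onto seeds in loam:sand; POST at 1–4 leaves (2–18 cm) in peat moss/vermiculite medium. Read-out: visual % control vs untreated, day 13–15.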"}, "pigweed [2]": {"test_system": "pigweed", "assay": "Test A pre-/postemergence herbicide test", "assay_type": "in vivo, Amaranthus retroflexus", "conditions": "for pest or weed control at 500 g/ha: 500 g ai/ha", "how_it_was_run": "(§2)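 Greenhouse pot test with pre- and postemergence application of surfactant-containing solvent formulations. Postemergence plants were 2–10 cm, one- to two-leaf stage. Response scored visually after ~10 days, 0 (no effect) to 100 (complete control).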"}, "barnyardgrass [3]": {"test_system": "barnyardgrass", "assay": "Test C pre-/postemergence herbicide test", "assay_type": "in vivo, Echinochloa crus-galli", "how_it_was_run": "as §1"}, "morningglory": {"test_system": "morningglory", "assay": "Test A pre-/postemergence herbicide test", "assay_type": "in vivo, Ipomoea spp.", "conditions": "for pest or weed control at 500 g/ha: 500 g ai/ha", "how_it_was_run": "as §2"}, "barnyardgrass [4]": {"test_system": "barnyardgrass", "assay": "Test B flooded paddy test", "assay_type": "in vivo, Echinochloa crus-galli", "conditions": "250 g ai/ha, Flood; scale of 0 to 100 where 0 is no effect and 100 is complete control", "how_it_was_run": "(§3)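 Visual ratings from 0, meaning no effect, up to 100, meaning complete control, were made by comparison with untreated controls 13 to 15 days after treatment. Test compounds went straight into floodwater standing 3 cm over the soil of pots holding 2-leaf seedlings.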"}, "sedge, umbrella": {"test_system": "sedge, umbrella", "assay": "Test C flooded paddy test", "assay_type": "in vivo, Cyperus difformis", "conditions": "Flood", "how_it_was_run": "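2-leaf stage; flood 3 cm over soil; compound into paddy water; depth held; greenhouse 13–15 d; visual % control vs untreated (0 = none, 100 = complete); \"-\" = not tested.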"}, "ducksalad": {"test_system": "ducksalad", "assay": "Test B flooded paddy test", "assay_type": "in vivo, Heteranthera limosa", "conditions": "250 g ai/ha, Flood; scale of 0 to 100 where 0 is no effect and 100 is complete control", "how_it_was_run": "as §3"}, "[5]": {"conditions": "Postemergence, 31 g ai/ha, scale 0 (no effect) to 100 (complete control)"}, "[6]": {"conditions": "Postemergence, 62 g ai/ha, scale 0 to 100 (0 no effect, 100 complete control)"}, "[7]": {"conditions": "Postemergence, 125 g ai/ha, scale 0 to 100 (0 no effect, 100 complete control)"}, "[8]": {"conditions": "Postemergence, 250 g ai/ha, scale 0 to 100 (0 no effect, 100 complete control)"}, "[9]": {"conditions": "Preemergence, 31 g ai/ha, scale 0 to 100, 0 is no effect and 100 is complete control"}, "[10]": {"conditions": "Preemergence, 62 g ai/ha, scale 0 to 100"}, "[11]": {"conditions": "Preemergence, 125 g ai/ha, scale 0 to 100 (0 no effect, 100 complete control)"}, "[12]": {"conditions": "Preemergence, 125 g ai/ha, visual rating on 0 to 100 scale (0 no effect, 100 complete control)"}}, "note": "Read-outs that look alike come from different tables or passages of the source.", "data": [{"smiles": "O=C1NCC(c2ccc(C(F)(F)F)cc2)C1C(=O)Nc1cccc(F)c1F", "note": "(stereo not drawn) [Compound 80, N-(2,3-difluorophenyl)-2-oxo-4-[4-(trifluoromethyl)phenyl]-3-pyrrolidinecarboxamide]", "values": [{"measurement": "Plant response rating, Pigweed", "setting": "pigweed [1]; [5]", "result": 40}, {"measurement": "Plant response rating, Pigweed", "setting": "pigweed [1]; [6]", "result": 40}, {"measurement": "Plant response rating, Pigweed", "setting": "pigweed [1]; [7]", "result": 60}, {"measurement": "Plant response rating, Pigweed", "setting": "pigweed [1]; [8]", "result": 75}, {"measurement": "Pigweed plant response rating", "setting": "pigweed [1]; [9]", "result": 75}, {"measurement": "Plant response rating, Pigweed", "setting": "pigweed [1]; [10]", "result": 90}, {"measurement": "Plant response rating, Pigweed", "setting": "pigweed [1]; [11]", "result": 90}, {"measurement": "Plant response rating (scale of 0 to 100), Pigweed", "setting": "pigweed [1]; Preemergence, 250 g ai/ha", "result": 90}, {"measurement": "pest or weed control at 125 g/ha", "setting": "pigweed [2]; Amaranthus retroflexus, post-emergence, 240 h, Postemergence, 125 g ai/ha, 0 to 100 scale, 0 no effect, 100 complete control, read-out: Plant response rating, Pigweed", "result": 60, "unit": "%"}, {"measurement": "pest or weed control at 500 g/ha", "setting": "pigweed [2]; Amaranthus retroflexus, post-emergence, 240 h, Postemergence, 0 to 100 scale (0 no effect, 100 complete control), read-out: Plant response rating, Pigweed", "result": 70, "unit": "%"}, {"measurement": "pest or weed control at 500 g/ha", "setting": "pigweed [2]; Amaranthus retroflexus, pre-emergence, 240 h, preemergence, 0 to 100 scale, read-out: Plant response rating, Pigweed", "result": 80, "unit": "%"}, {"measurement": "Pigweed plant response rating", "setting": "pigweed [2]; [12]", "result": 60}, {"measurement": "Plant response rating, Barnyardgrass", "setting": "barnyardgrass [3]; [5]", "result": 0}, {"measurement": "Plant response rating, Barnyardgrass", "setting": "barnyardgrass [3]; [6]", "result": 20}, {"measurement": "Plant response rating, Barnyardgrass", "setting": "barnyardgrass [3]; [7]", "result": 35}, {"measurement": "Plant response rating, Barnyardgrass", "setting": "barnyardgrass [3]; [8]", "result": 70}, {"measurement": "Barnyardgrass plant response rating", "setting": "barnyardgrass [3]; [9]", "result": 85}, {"measurement": "Plant response rating, Barnyardgrass", "setting": "barnyardgrass [3]; [10]", "result": 95}, {"measurement": "Plant response rating, Barnyardgrass", "setting": "barnyardgrass [3]; [11]", "result": 95}, {"measurement": "Plant response rating (scale of 0 to 100; 0 is no effect, 100 is complete control), Barnyardgrass", "setting": "barnyardgrass [3]; Preemergence, 250 g ai/ha", "result": 95}, {"measurement": "pest or weed control at 125 g/ha", "setting": "morningglory; Ipomoea, post-emergence, 240 h, Postemergence, 125 g ai/ha, 0 to 100 scale, 0 no effect, 100 complete control, read-out: Plant response rating, Morningglory", "result": 0, "unit": "%"}, {"measurement": "pest or weed control at 500 g/ha", "setting": "morningglory; Ipomoea, post-emergence, 240 h, Postemergence, 0 to 100 scale (0 no effect, 100 complete control), read-out: Plant response rating, Morningglory", "result": 0, "unit": "%"}, {"measurement": "pest or weed control at 500 g/ha", "setting": "morningglory; Ipomoea, pre-emergence, 240 h, preemergence, 0 to 100 scale, read-out: Plant response rating, Morningglory", "result": 0, "unit": "%"}, {"measurement": "Morningglory plant response rating", "setting": "morningglory; [12]", "result": 0}, {"measurement": "Plant response rating, Barnyardgrass", "setting": "barnyardgrass [4]", "result": 30}, {"measurement": "Plant response rating, Sedge, Umbrella", "setting": "sedge, umbrella; 31 g ai/ha, scale of 0 to 100 where 0 is no effect and 100 is complete control, 13 to 15 days", "result": 35}, {"measurement": "Plant response rating, Sedge, Umbrella", "setting": "sedge, umbrella; 62 g ai/ha, scale of 0 to 100 where 0 is no effect and 100 is complete control, 13 to 15 days", "result": 35}, {"measurement": "Plant response rating, Sedge, Umbrella", "setting": "sedge, umbrella; 125 g ai/ha, scale of 0 to 100 where 0 is no effect and 100 is complete control, 13 to 15 days", "result": 55}, {"measurement": "Plant response rating, Sedge, Umbrella", "setting": "sedge, umbrella; 250 g ai/ha, scale 0 to 100", "result": 65}, {"measurement": "Plant response rating, Ducksalad", "setting": "ducksalad", "result": 75}]}]}
